# Measured values reported in US20260077071A1, “Targeted Delivery of Theranostic Agents” (Peter MacCallum Cancer Institute, priority 2022, published 2026).
# Like-named read-outs stand apart in the source and are kept apart here. Square brackets hold non-standard residues; d marks the D form. Peptide text beside a SMILES is read from it. Phe(3,4,5-F3) = N[C@@H](Cc1cc(F)c(F)c(F)c1)C(=O)O; Phe(F5) = N[C@@H](Cc1c(F)c(F)c(F)c(F)c1F)C(=O)O; Phe(3,4-F2) = N[C@@H](Cc1ccc(F)c(F)c1)C(=O)O; Phe(4-NH2) = Nc1ccc(C[C@H](N)C(=O)O)cc1; Phe(4-F) = N[C@@H](Cc1ccc(F)cc1)C(=O)O; 1Nal = N[C@@H](Cc1cccc2ccccc12)C(=O)O; 2Nal = N[C@@H](Cc1ccc2ccccc2c1)C(=O)O; NMeNle = CCCC[C@H](NC)C(=O)O; Sar = CNCC(=O)O
# Target: T1, human full-length CCK-2 receptor (Homo sapiens, UniProt P32239)
# T1 construct: stably transfected to over-express the human full-length CCK-2 receptor (A431-CCK-2R); expressed in transfected cells
# T1 sequence (P32239 1-447): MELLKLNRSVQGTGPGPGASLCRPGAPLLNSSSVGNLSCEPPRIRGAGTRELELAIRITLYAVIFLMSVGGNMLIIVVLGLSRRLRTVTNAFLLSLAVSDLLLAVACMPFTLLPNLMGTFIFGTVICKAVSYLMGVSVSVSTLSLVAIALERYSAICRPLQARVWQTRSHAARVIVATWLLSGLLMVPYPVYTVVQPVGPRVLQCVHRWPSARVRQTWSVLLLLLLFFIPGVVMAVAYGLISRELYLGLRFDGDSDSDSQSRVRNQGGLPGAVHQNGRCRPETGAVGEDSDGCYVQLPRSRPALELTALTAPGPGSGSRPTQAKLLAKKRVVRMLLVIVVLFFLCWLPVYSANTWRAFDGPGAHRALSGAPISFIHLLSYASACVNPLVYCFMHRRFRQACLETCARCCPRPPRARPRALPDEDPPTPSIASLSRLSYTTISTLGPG
# Assay: Competitive ligand binding against [^177Lu]Lu-DOTA-CP04 in A431-CCK-2R cells
# Conditions: for loss of binding affinity / activity: D-Ala analogue versus baseline comparative example-1; for IC50: read-out: IC50; for decrease in affinity for the CCK-2 receptor: free peptide versus its linker/metal-complex (DOTA) form
# Experimental: CCK-2 receptor binding experiments were conducted using A431 (human epidermoid carcinoma) cells stably transfected to over-express the human full-length CCK-2 receptor (A431-CCK-2R). As a negative control, A431 cells stably transfected with an empty vector were analysed simultaneously (A431-EV). A431 cells were maintained in DMEM (Gibco, Australia) media supplemented with 10% foetal calf serum and 250 μg/mL G418 as described previously (Aloj L, et al., J Nucl Med., 2004, Mar; 45(3), 485-94). The affinity of peptides for the CCK-2R was evaluated using competitive binding assays against [^177Lu]Lu-DOTA-CP04 in A431-CCK-2R cells. Briefly, 48 h before the experiment cells were plated at a density of 650,000 cells per well in 6 well plates. On the day of the experiment the peptides were diluted in DMEM supplemented with 1% foetal calf serum to at least 7 different concentrations (0-400 nM) and approximately 50,000 cpm of [^177Lu]Lu-DOTA-CP04 was added to each dilution. Cells were washed twice in ice-cold binding buffer (DMEM supplemented with 1% foetal calf serum) and resuspended in 1.5 mL of the pre-prepared compound mix before being incubated at 37° C. for 1 h. Post-incubation the media was removed and kept for analysis (unbound fraction) and the cells were washed twice in ice-cold binding buffer, which was pooled with the unbound fraction. Finally, 1 M NaOH was added to the cells and allowed to incubate for 5 min before lysates were collected (bound fraction). A small volume of lysate was kept aside to determine protein concentration using the Pierce® BCA protein assay kit (Thermo Fisher, Australia). All samples were analysed using the Perkin Elmer 2480 Wizard2™ gamma counter (PerkinElmer, Massachusetts, USA) and were normalised according to protein concentration. Half-maximal inhibitory concentrations (IC50) were determined using nonlinear regression calculated using GraphPad Prism Software (GraphPad Software, California, USA).
# The compounds were evaluated for their ability to disrupt the binding between CCK-2 receptor (CCK-2R) and [^177Lu]Lu-DOTA-CP04 using the methodology described above and compared to comparative example-2 (FIG. 2; Table 5).
# [1] = D-Ala substituted peptides (Table 2), against [^177Lu]Lu-DOTA-CP04 in A431-CCK-2R cells
# [2] = substituted-phenylalanine peptides based on Cmp ex-1 (Table 3)
loss of binding affinity / activity,IC50 [1],IC50 [2],Compound,other results
approx. 5 fold,1.23 nM,,CCCC[C@@H](C(=O)N[C@@H](CC(=O)O)C(=O)N[C@@H](Cc1cccc2ccccc12)C(N)=O)N(C)C(=O)[C@H](Cc1c[nH]c2ccccc12)NC(=O)CN(C)C(=O)[C@H](Cc1ccc(O)cc1)NC(=O)[C@H](C)NC(=O)[C@@H](CCC(=O)O)NC(=O)[C@@H](CCC(=O)O)NC(=O)[C@@H](CCC(=O)O)NC(=O)[C@@H](CCC(=O)O)NC(=O)[C@@H](C)NC(=O)[C@H](N)CCC(=O)O [B] (H-[dE][dA][dE][dE][dE][dE]AY[Sar]W[NMeNle]D[1Nal]-NH2),
,,,"CSCC[C@H](NC(=O)[C@H](Cc1c[nH]c2ccccc12)NC(=O)CNC(=O)[C@H](Cc1ccc(O)cc1)NC(=O)[C@H](C)NC(=O)[C@@H](CCC(=O)O)NC(=O)[C@@H](CCC(=O)O)NC(=O)[C@@H](CCC(=O)O)NC(=O)[C@@H](CCC(=O)O)NC(=O)[C@@H](CCC(=O)O)NC(=O)[C@@H](CCC(=O)O)NC(=O)CN1CCN(CC(=O)O)CCN(CC(=O)O)CCN(CC(=O)O)CC1)C(=O)N[C@@H](CC(=O)O)C(=O)N[C@@H](Cc1ccccc1)C(N)=O [CP04, reference compound]",decrease in affinity for the CCK-2 receptor: greater than 3 fold
,0.319 nM,,"CCCC[C@@H](C(=O)N[C@@H](CC(=O)O)C(=O)N[C@@H](Cc1cccc2ccccc12)C(N)=O)N(C)C(=O)[C@H](Cc1c[nH]c2ccccc12)NC(=O)CN(C)C(=O)[C@H](Cc1ccc(O)cc1)NC(=O)[C@H](C)NC(=O)[C@@H](CCC(=O)O)NC(=O)[C@@H](CCC(=O)O)NC(=O)[C@@H](CCC(=O)O)NC(=O)[C@@H](CCC(=O)O)NC(=O)[C@@H](CCC(=O)O)NC(=O)[C@H](N)CCC(=O)O [Cmp ex-1, reference compound] (H-[dE][dE][dE][dE][dE][dE]AY[Sar]W[NMeNle]D[1Nal]-NH2; N-terminus assumed)",decrease in affinity for the CCK-2 receptor: 5 fold
approx. 5 fold,1.62 nM,,CCCC[C@@H](C(=O)N[C@@H](CC(=O)O)C(=O)N[C@@H](Cc1cccc2ccccc12)C(N)=O)N(C)C(=O)[C@H](Cc1c[nH]c2ccccc12)NC(=O)CN(C)C(=O)[C@H](Cc1ccc(O)cc1)NC(=O)[C@H](C)NC(=O)[C@@H](CCC(=O)O)NC(=O)[C@@H](CCC(=O)O)NC(=O)[C@@H](C)NC(=O)[C@@H](CCC(=O)O)NC(=O)[C@@H](CCC(=O)O)NC(=O)[C@H](N)CCC(=O)O [D] (H-[dE][dE][dE][dA][dE][dE]AY[Sar]W[NMeNle]D[1Nal]-NH2),
equivalent loss of activity,,,CCCC[C@@H](C(=O)N[C@@H](CC(=O)O)C(=O)N[C@@H](Cc1cccc2ccccc12)C(N)=O)N(C)C(=O)[C@H](Cc1c[nH]c2ccccc12)NC(=O)CN(C)C(=O)[C@H](Cc1ccc(O)cc1)NC(=O)[C@H](C)NC(=O)[C@@H](CCC(=O)O)NC(=O)[C@@H](C)NC(=O)[C@@H](CCC(=O)O)NC(=O)[C@@H](CCC(=O)O)NC(=O)[C@@H](CCC(=O)O)NC(=O)[C@H](N)CCC(=O)O [E] (H-[dE][dE][dE][dE][dA][dE]AY[Sar]W[NMeNle]D[1Nal]-NH2),
approx. 5 fold,1.62 nM,,CCCC[C@@H](C(=O)N[C@@H](CC(=O)O)C(=O)N[C@@H](Cc1cccc2ccccc12)C(N)=O)N(C)C(=O)[C@H](Cc1c[nH]c2ccccc12)NC(=O)CN(C)C(=O)[C@H](Cc1ccc(O)cc1)NC(=O)[C@H](C)NC(=O)[C@@H](C)NC(=O)[C@@H](CCC(=O)O)NC(=O)[C@@H](CCC(=O)O)NC(=O)[C@@H](CCC(=O)O)NC(=O)[C@@H](CCC(=O)O)NC(=O)[C@H](N)CCC(=O)O [F] (H-[dE][dE][dE][dE][dE][dA]AY[Sar]W[NMeNle]D[1Nal]-NH2),
,,0.92 nM,CCCC[C@@H](C(=O)N[C@@H](CC(=O)O)C(=O)N[C@@H](Cc1ccc(F)cc1)C(N)=O)N(C)C(=O)[C@H](Cc1c[nH]c2ccccc12)NC(=O)CN(C)C(=O)[C@H](Cc1ccc(O)cc1)NC(=O)[C@H](C)NC(=O)[C@@H](CCC(=O)O)NC(=O)[C@@H](CCC(=O)O)NC(=O)[C@@H](CCC(=O)O)NC(=O)[C@@H](CCC(=O)O)NC(=O)[C@@H](CCC(=O)O)NC(=O)[C@H](N)CCC(=O)O [G] (H-[dE][dE][dE][dE][dE][dE]AY[Sar]W[NMeNle]D[Phe(4-F)]-NH2),
,,0.64 nM,"CCCC[C@@H](C(=O)N[C@@H](CC(=O)O)C(=O)N[C@@H](Cc1ccc(F)c(F)c1)C(N)=O)N(C)C(=O)[C@H](Cc1c[nH]c2ccccc12)NC(=O)CN(C)C(=O)[C@H](Cc1ccc(O)cc1)NC(=O)[C@H](C)NC(=O)[C@@H](CCC(=O)O)NC(=O)[C@@H](CCC(=O)O)NC(=O)[C@@H](CCC(=O)O)NC(=O)[C@@H](CCC(=O)O)NC(=O)[C@@H](CCC(=O)O)NC(=O)[C@H](N)CCC(=O)O [H] (H-[dE][dE][dE][dE][dE][dE]AY[Sar]W[NMeNle]D[Phe(3,4-F2)]-NH2)",
,,0.26 nM,"CCCC[C@@H](C(=O)N[C@@H](CC(=O)O)C(=O)N[C@@H](Cc1cc(F)c(F)c(F)c1)C(N)=O)N(C)C(=O)[C@H](Cc1c[nH]c2ccccc12)NC(=O)CN(C)C(=O)[C@H](Cc1ccc(O)cc1)NC(=O)[C@H](C)NC(=O)[C@@H](CCC(=O)O)NC(=O)[C@@H](CCC(=O)O)NC(=O)[C@@H](CCC(=O)O)NC(=O)[C@@H](CCC(=O)O)NC(=O)[C@@H](CCC(=O)O)NC(=O)[C@H](N)CCC(=O)O [I] (H-[dE][dE][dE][dE][dE][dE]AY[Sar]W[NMeNle]D[Phe(3,4,5-F3)]-NH2)",
,,1.92 nM,CCCC[C@@H](C(=O)N[C@@H](CC(=O)O)C(=O)N[C@@H](Cc1c(F)c(F)c(F)c(F)c1F)C(N)=O)N(C)C(=O)[C@H](Cc1c[nH]c2ccccc12)NC(=O)CN(C)C(=O)[C@H](Cc1ccc(O)cc1)NC(=O)[C@H](C)NC(=O)[C@@H](CCC(=O)O)NC(=O)[C@@H](CCC(=O)O)NC(=O)[C@@H](CCC(=O)O)NC(=O)[C@@H](CCC(=O)O)NC(=O)[C@@H](CCC(=O)O)NC(=O)[C@H](N)CCC(=O)O [J] (H-[dE][dE][dE][dE][dE][dE]AY[Sar]W[NMeNle]D[Phe(F5)]-NH2; N-terminus assumed),
,,0.52 nM,CCCC[C@@H](C(=O)N[C@@H](CC(=O)O)C(=O)N[C@@H](Cc1ccc(N)cc1)C(N)=O)N(C)C(=O)[C@H](Cc1c[nH]c2ccccc12)NC(=O)CN(C)C(=O)[C@H](Cc1ccc(O)cc1)NC(=O)[C@H](C)NC(=O)[C@@H](CCC(=O)O)NC(=O)[C@@H](CCC(=O)O)NC(=O)[C@@H](CCC(=O)O)NC(=O)[C@@H](CCC(=O)O)NC(=O)[C@@H](CCC(=O)O)NC(=O)[C@H](N)CCC(=O)O [K] (H-[dE][dE][dE][dE][dE][dE]AY[Sar]W[NMeNle]D[Phe(4-NH2)]-NH2; N-terminus assumed),
,,0.6 nM,CCCC[C@@H](C(=O)N[C@@H](CC(=O)O)C(=O)N[C@@H](Cc1ccc2ccccc2c1)C(N)=O)N(C)C(=O)[C@H](Cc1c[nH]c2ccccc12)NC(=O)CN(C)C(=O)[C@H](Cc1ccc(O)cc1)NC(=O)[C@H](C)NC(=O)[C@@H](CCC(=O)O)NC(=O)[C@@H](CCC(=O)O)NC(=O)[C@@H](CCC(=O)O)NC(=O)[C@@H](CCC(=O)O)NC(=O)[C@@H](CCC(=O)O)NC(=O)[C@H](N)CCC(=O)O [L] (H-[dE][dE][dE][dE][dE][dE]AY[Sar]W[NMeNle]D[2Nal]-NH2; N-terminus assumed),
,,,CCCC[C@@H](C(=O)N[C@@H](CC(=O)O)C(=O)N[C@@H](Cc1ccc(N)cc1)C(N)=O)N(C)C(=O)[C@H](Cc1c[nH]c2ccccc12)NC(=O)CN(C)C(=O)[C@H](Cc1ccc(O)cc1)NC(=O)[C@H](C)NC(=O)[C@@H](CCC(=O)O)NC(=O)[C@@H](CCC(=O)O)NC(=O)[C@@H](CCC(=O)O)NC(=O)[C@@H](C)NC(=O)[C@@H](CCC(=O)O)NC(=O)[C@H](N)CCC(=O)O [M] (H-[dE][dE][dA][dE][dE][dE]AY[Sar]W[NMeNle]D[Phe(4-NH2)]-NH2; N-terminus assumed),IC50 (modified peptides based on Peptide C (Table 4)): 0.741 ± 0.064 nM
